Source: patent US9169268B2, “Use of 7-alkoxy fangchinoline compounds in preventing, alleviating and/or treating depression” (Peking University, priority 2012, dated 2015)

Columns and labels:
GSK-3β = GSK-3β (Homo sapiens, UniProt P49841); experiment: GSK-3β activity assay (Z′-LYTE); format: biochemical; conditions: n = 3; read-out: Mean EC50 in the inhibition of GSK-3β activity
Protocol: The GSK-3β phosphorylation level was determined by using a Z′-LYTE assay (Life Technologies). The assay was performed in a 384-well plate. The wells of the testing plate were divided into blank control wells (without the enzyme), enzyme control wells (without the testing substance), and testing wells (with the enzyme and the testing substance at various concentrations). The inhibition rate of the testing substance is expressed as: inhibition %=(E−S)/(E−B)×100, wherein E is the average emission ratio of enzyme control wells; B is the average emission ratio of blank control wells; S is the emission ratio of the testing sample wells. The median effective concentration of each compound (EC50 μM) was calculated by using the resultant inhibition rate of each sample at various concentrations.

[1] = system: chronic unpredictable stress (CUS) model in rats; experiment: Forced swimming test in chronic unpredictable stress (CUS) model in rats; format: in vivo; conditions: 7 days
Protocol: (§1) The chronic unpredictable stress model is usually used as a depression model. The experimental method is as follows. Stimulation includes forced swimming (10° C., 6 min), tail clamping (1 cm from the tail tip, 1 min), water deprivation (24 h), fasting (24 h), isolated housing (24 h), tail suspension (1 h), immobility (2 h), high-speed horizontal oscillation (120 times/min, 1 h), foot shock for 45 minutes (mean 1 mA, time course 1 s, once/min). These stressors were randomly scheduled over a one-week period and repeated throughout the 23-day experiment. The non-stress control group was housed under normal conditions. Time: between 9:00 a.m. and 2:00 p.m. Since Day 15, the animals in each group were daily intragastrically administered with the subject medicament and double distilled water based on body weight (blank group and CUS model group) respectively, 60 minutes before the stress. […] Behavior and sleep electroencephalogram analyses were carried out on Day 22-23 of the stress. On Day 21, 60 minutes after the final administration, a sucrose solution intake test was carried out and sleep electroencephalogram was recorded simultaneously. On Day 22, EPM and forced swimming tests were carried out.

[2] = system: chronic unpredictable stress (CUS) model in rats; experiment: Sucrose solution preference in CUS model in rats; format: in vivo; conditions: 7 days
Protocol: as §1

[3] = system: chronic unpredictable stress (CUS) model in rats; experiment: Autonomous movement in CUS model in rats; format: in vivo; conditions: 7 days
Protocol: as §1

[4] = system: chronic unpredictable stress (CUS) model in rats; experiment: Elevated plus-maze (EPM) anxiety test in CUS model in rats; format: in vivo; conditions: for anti-anxiety-like effect: doses of 30 and 60 mg/kg
Protocol: as §1

[5] = system: chronic unpredictable stress (CUS) model in rats; experiment: Depression-like behaviors overall in CUS model in rats (forced swimming, sucrose preference, autonomous mobility); format: in vivo; conditions: doses of 30 and 60 mg/kg
Text: The chronic unpredictable stress model is usually used as a depression model. The experimental method is as follows. […] These stressors were randomly scheduled over a one-week period and repeated throughout the 23-day experiment. The non-stress control group was housed under normal conditions. Time: between 9:00 a.m. and 2:00 p.m. Since Day 15, the animals in each group were daily intragastrically administered with the subject medicament and double distilled water based on body weight (blank group and CUS model group) respectively, 60 minutes before the stress. Imipramine (intraperitoneally, IP) was adopted as a positive control. Behavior and sleep electroencephalogram analyses were carried out on Day 22-23 of the stress. On Day 21, 60 minutes after the final administration, a sucrose solution intake test was carried out and sleep electroencephalogram was recorded simultaneously. On Day 22, EPM and forced swimming tests were carried out. Result 1: […]

[6] = Serum AST and ALT in mice after 14 days of intragastric administration; format: in vivo; conditions: mouse, in vivo, 60 mg/kg/day
Protocol: Blood was collected from epicanthal, stood at room temperature for about 2 hours, and centrifuged for 12 minutes at 3000 r/min after coagulation. The serum was removed and centrifuged again. Alanine transaminase (ALT) and aspartate transaminase (AST) levels were determined

Sequence of GSK-3β (P49841 whole entry): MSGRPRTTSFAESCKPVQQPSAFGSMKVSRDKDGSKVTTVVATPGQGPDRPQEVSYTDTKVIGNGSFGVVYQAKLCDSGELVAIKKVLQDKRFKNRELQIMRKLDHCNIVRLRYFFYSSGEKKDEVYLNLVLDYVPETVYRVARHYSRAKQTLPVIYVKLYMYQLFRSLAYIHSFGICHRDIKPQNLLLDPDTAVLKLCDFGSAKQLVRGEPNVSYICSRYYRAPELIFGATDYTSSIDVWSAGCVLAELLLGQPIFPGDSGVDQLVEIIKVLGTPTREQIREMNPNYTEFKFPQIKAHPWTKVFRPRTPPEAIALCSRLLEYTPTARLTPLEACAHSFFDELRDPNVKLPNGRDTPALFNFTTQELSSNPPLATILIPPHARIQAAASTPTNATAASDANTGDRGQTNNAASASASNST

Compound	EC50 (GSK-3β)	Sucrose solution preference ([2]; 30 mg/kg intragastric daily)	Sucrose solution preference ([2]; 60 mg/kg intragastric daily)	Autonomous movement Distance ([3]; 30 mg/kg intragastric daily)	Autonomous movement Speed ([3]; 30 mg/kg intragastric daily)	Autonomous movement Distance ([3]; 60 mg/kg intragastric daily)	Autonomous movement Speed ([3]; 60 mg/kg intragastric daily)	Percentage of entries into open arms relative to total entries into arms ([4]; 30 mg/kg intragastric daily)	Percentage of residence time in open arms ([4]; 30 mg/kg intragastric daily)	Percentage of entries into open arms relative to total entries into arms ([4]; 60 mg/kg intragastric daily)	Percentage of residence time in open arms ([4]; 60 mg/kg intragastric daily)	anti-anxiety-like effect [4]	amelioration effect on depression-like behaviors [5]	Sucrose solution preference ([2]; 7.5 mg/kg intragastric daily)	Sucrose solution preference ([2]; 15 mg/kg intragastric daily)	Autonomous movement Distance ([3]; 7.5 mg/kg intragastric daily)	Autonomous movement Speed ([3]; 7.5 mg/kg intragastric daily)	Autonomous movement Distance ([3]; 15 mg/kg intragastric daily)	Autonomous movement Speed ([3]; 15 mg/kg intragastric daily)	Percentage of entries into open arms relative to total entries into arms ([4]; 7.5 mg/kg intragastric daily)	further results
12-(4-ethoxy)-butoxyberbamine [reference compound]	> 10 µM	54.19 ± 4.45%	53.27 ± 3.55%	1367.52 ± 683.88 mm	4.56 ± 1.74 mm/second	935.73 ± 586.51 mm	3.12 ± 1.31 mm/second	36.6 ± 1.7%	40.1 ± 4.5%	37.2 ± 1.3%	39.2 ± 3.5%	no anti-anxiety-like effect	no amelioration effect	–	–	–	–	–	–	–	Forced swimming Immobility time ([1]; 30 mg/kg intragastric daily): 179.5 ± 6.3 s; Forced swimming Immobility time ([1]; 60 mg/kg intragastric daily): 175.3 ± 8.4 s
12-acetoxyberbamine [reference compound]	> 10 µM	54.29 ± 3.74%	53.34 ± 3.04%	984.41 ± 542.67 mm	3.28 ± 1.35 mm/second	1135.49 ± 575.54 mm	3.78 ± 1.46 mm/second	38.2 ± 1.8%	41.9 ± 3.7%	36.8 ± 1.6%	43.3 ± 3.4%	no anti-anxiety-like effect	no amelioration effect	–	–	–	–	–	–	–	Forced swimming Immobility time ([1]; 30 mg/kg intragastric daily): 179.2 ± 6.6 s; Forced swimming Immobility time ([1]; 60 mg/kg intragastric daily): 169.9 ± 7.4 s
COc1ccc2cc1Oc1ccc(cc1)CC1c3cc(c(OC)cc3CCN1C)Oc1c(OC)c(OC)c(OC)c3c1C(C2)N(C)CC3 (stereo not shown) [5,7-dimethoxy-fangchinoline, reference compound]	> 10 µM	53.7 ± 4.8%	55.3 ± 4.2%	1189.64 ± 315.84 mm	3.97 ± 1.48 mm/second	936.47 ± 366.32 mm	3.12 ± 1.42 mm/second	38.9 ± 1.8%	43.2 ± 4.1%	37.2 ± 1.4%	42.8 ± 4.8%	no anti-anxiety-like effect	no amelioration effect	–	–	–	–	–	–	–	–
COc1cc(Br)c2cc1Oc1ccc(cc1)CC1c3cc(c(OC)cc3CCN1C)Oc1c(OC)c(OC)c(Br)c3c1C(C2)N(C)CC3 (stereo not shown) [Compound 2, 5,14-dibromo-7-methoxy fangchinoline]	2.01 µM	88.5 ± 3.1^##,$$ %	–	12062.32 ± 903.42^##,$$ mm	40.21 ± 5.36^##,$$ mm/second	–	–	56.2 ± 5.3^##,$$ %	64.5 ± 3.6^##,$$ %	–	–	–	–	72.5 ± 3.0 %	89.0 ± 4.6^##,$$ %	9031.41 ± 639.33^##,$$ mm	30.10 ± 3.88^##,$$ mm/second	10116.74 ± 746.48^##,$$ mm	33.72 ± 4.02^##,$$ mm/second	45.1 ± 3.8 %	Percentage of residence time in open arms ([4]; 7.5 mg/kg intragastric daily): 56.5 ± 3.0^##,$$ %; Percentage of entries into open arms relative to total entries into arms ([4]; 15 mg/kg intragastric daily): 49.7 ± 4.0 %; Percentage of residence time in open arms ([4]; 15 mg/kg intragastric daily): 63.6 ± 4.1^##,$$ %; ALT [6]: 87.2 ± 24.7 U/L; AST [6]: 108.4 ± 17.4 U/L; AST/ALT [6]: 1.24 ± 0.26; melting point: 187 to 189 °C
CCCOc1c(OC)cc2c3c1Oc1cc4c(cc1OC)CCN(C)C4Cc1ccc(cc1)Oc1cc(ccc1OC)CC3N(C)CC2 (stereo not shown) [Compound 6, 7-propoxy fangchinoline]	1.68 µM	90.4 ± 4.3^##,$$ %	–	12566.27 ± 764.42^##,$$ mm	41.89 ± 4.36^##,$$ mm/second	–	–	57.3 ± 4.6^##,$$ %	66.0 ± 4.2^##,$$ %	–	–	–	–	79.45 ± 3.3 %	85.5 ± 3.6^##,$$ %	8940.78 ± 714.35^##,$$ mm	29.80 ± 2.64^##,$$ mm/second	11574.92 ± 732.36^##,$$ mm	38.58 ± 3.02^##,$$ mm/second	47.0 ± 2.6 %	Percentage of residence time in open arms ([4]; 7.5 mg/kg intragastric daily): 59.4 ± 3.3^##,$$ %; Percentage of entries into open arms relative to total entries into arms ([4]; 15 mg/kg intragastric daily): 50.5 ± 3.2 %; Percentage of residence time in open arms ([4]; 15 mg/kg intragastric daily): 64.1 ± 3.6^##,$$ %; ALT [6]: 92.3 ± 21.2 U/L; AST [6]: 99.4 ± 21.1 U/L; AST/ALT [6]: 1.08 ± 0.27; melting point: 174.8 to 176.3 °C
CCCCOc1c(OC)cc2c3c1Oc1cc4c(cc1OC)CCN(C)C4Cc1ccc(cc1)Oc1cc(ccc1OC)CC3N(C)CC2 (stereo not shown) [Compound 7, 7-butoxy fangchinoline]	2.33 µM	86.3 ± 3.4^##,$$ %	–	11768.25 ± 903.41^##,$$ mm	39.23 ± 5.36^##,$$ mm/second	–	–	54.3 ± 5.6^##,$ %	61.5 ± 3.0^##,$$ %	–	–	–	–	70.7 ± 4.1 %	87.1 ± 3.5 %	8823.36 ± 673.14^##,$$ mm	29.41 ± 2.64^##,$$ mm/second	9586.43 ± 756.75^##,$$ mm	31.95 ± 4.02^##,$$ mm/second	43.4 ± 2.6 %	Percentage of residence time in open arms ([4]; 7.5 mg/kg intragastric daily): 54.7 ± 4.1^##,$$ %; Percentage of entries into open arms relative to total entries into arms ([4]; 15 mg/kg intragastric daily): 47.9 ± 4.0 %; Percentage of residence time in open arms ([4]; 15 mg/kg intragastric daily): 62.1 ± 3.4^##,$$ %; ALT [6]: 82.4 ± 17.9 U/L; AST [6]: 93.6 ± 17.8 U/L; AST/ALT [6]: 1.14 ± 0.20; melting point: 155 to 156 °C
